Laboratory results reported in ChEMBL document CHEMBL1201862, “PubChem BioAssay data set” (2004).
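Protocol summary: plate cells (96-well), add compound at 5 concentrations, incubate 48 h, interpolate endpoints linearly. GI50 = concentration required for 50% inhibition of growth.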 Calls of active or inactive are those of the source. Rule as the data show it: active = GI50 up to about 1.1 µM and inactive = higher.

Tests used:
Assay in all cases: growth of human tumour cells (NCI), 48 h
COLO 205 = tested on: COLO 205
DMS-273 = tested on: DMS-273
EKVX = tested on: EKVX
HCC 2998 = tested on: HCC 2998
HCT-116 = tested on: HCT-116
HL-60 = tested on: HL-60
HT-29 = tested on: HT-29
LXFL 529 = tested on: LXFL 529
M19-MEL = tested on: M19-MEL
MOLT-4 = tested on: MOLT-4
Malme-3M = tested on: Malme-3M
NCI-H226 = tested on: NCI-H226
OVCAR-8 = tested on: OVCAR-8
RXF 393 = tested on: RXF 393
SF-268 = tested on: SF-268
SR = tested on: SR
U-251 = tested on: U-251
UO-31 = tested on: UO-31
XF498 = tested on: XF498
PC-3 = tested on: PC-3

| Compound | GI50 (COLO 205) | GI50 (DMS-273) | GI50 (EKVX) | GI50 (HCC 2998) | GI50 (HCT-116) | GI50 (HL-60) | GI50 (HT-29) | GI50 (LXFL 529) | GI50 (M19-MEL) | GI50 (MOLT-4) | GI50 (Malme-3M) | GI50 (NCI-H226) | GI50 (OVCAR-8) | GI50 (RXF 393) | GI50 (SF-268) | GI50 (SR) | GI50 (U-251) | GI50 (UO-31) | GI50 (XF498) | GI50 (PC-3) |
| --- | --- | --- | --- | --- | --- | --- | --- | --- | --- | --- | --- | --- | --- | --- | --- | --- | --- | --- | --- | --- |
| CC(C)(C)c1cc(C(=O)O)c2c(c1)C(=O)OC2(c1ccccc1)c1ccccc1C(=O)O (stereo not given) | 41.1 µM (inactive) | > 100 µM (inactive) | > 100 µM (inactive) | 0.467 µM (active) | > 100 µM (inactive) | > 100 µM (inactive) | > 100 µM (inactive) | > 100 µM (inactive) | > 100 µM (inactive) | > 100 µM (inactive) | > 100 µM (inactive) | 23.9 µM (inactive) | > 100 µM (inactive) | > 100 µM (inactive) | > 100 µM (inactive) | > 100 µM (inactive) | 0.0448 µM (active) | > 100 µM (inactive) | > 100 µM (inactive) | – |
| COC(=O)C(C(=O)C(=O)Nc1cccc(C)c1)C1=NC(N)SS1 (stereo not given) | > 100 µM (inactive) | > 100 µM (inactive) | > 100 µM (inactive) | > 100 µM (inactive) | > 100 µM (inactive) | > 100 µM (inactive) | > 100 µM (inactive) | > 100 µM (inactive) | > 100 µM (inactive) | > 100 µM (inactive) | > 100 µM (inactive) | > 100 µM (inactive) | > 100 µM (inactive) | > 100 µM (inactive) | > 100 µM (inactive) | > 100 µM (inactive) | > 100 µM (inactive) | > 100 µM (inactive) | > 100 µM (inactive) | – |
| NC1=C(NC(=O)Cc2ccc(F)cc2)C(=O)c2ccccc2C1=O | 68.2 µM (inactive) | 33.1 µM (inactive) | > 100 µM (inactive) | > 100 µM (inactive) | 32 µM (inactive) | 35.1 µM (inactive) | > 100 µM (inactive) | > 100 µM (inactive) | 9.73 µM (inactive) | > 67.9 µM (inactive) | 49.5 µM (inactive) | > 50.4 µM (inactive) | 33.1 µM (inactive) | 24.6 µM (inactive) | 39.7 µM (inactive) | > 76.4 µM (inactive) | 13.9 µM (inactive) | 58.1 µM (inactive) | > 78.7 µM (inactive) | – |
| Cc1cnc2c(c1)C(=O)C1=C(OC(C)(C)CC1O)C2=O (stereo not given) | 16.7 µM (inactive) | 11.9 µM (inactive) | 20.7 µM (inactive) | 17.7 µM (inactive) | 14.4 µM (inactive) | 4.45 µM (inactive) | 20.6 µM (inactive) | 16.2 µM (inactive) | 3.1 µM (inactive) | 15.9 µM (inactive) | 14.4 µM (inactive) | 20.1 µM (inactive) | 15 µM (inactive) | 15.5 µM (inactive) | 14.9 µM (inactive) | 7.89 µM (inactive) | 15.2 µM (inactive) | 15.7 µM (inactive) | 19.5 µM (inactive) | – |
| CNC(=S)NNC(=O)c1c(C)nc2sccn12 | > 100 µM (inactive) | > 100 µM (inactive) | > 100 µM (inactive) | > 100 µM (inactive) | > 100 µM (inactive) | > 100 µM (inactive) | > 100 µM (inactive) | > 100 µM (inactive) | > 100 µM (inactive) | > 100 µM (inactive) | > 100 µM (inactive) | > 100 µM (inactive) | > 100 µM (inactive) | > 100 µM (inactive) | > 100 µM (inactive) | > 100 µM (inactive) | > 100 µM (inactive) | – | > 100 µM (inactive) | – |
| CC1=C(C(=O)Nc2ccccc2)C(c2cc(Cl)cc(Cl)c2)C(C(=O)Nc2ccccc2)=C(C)N1 | 17 µM (inactive) | 10.2 µM (inactive) | 17.4 µM (inactive) | 11.6 µM (inactive) | 9.53 µM (inactive) | 1.78 µM (inactive) | 4.65 µM (inactive) | 3.77 µM (inactive) | 10.4 µM (inactive) | 3.54 µM (inactive) | 14.4 µM (inactive) | 15.1 µM (inactive) | 10.5 µM (inactive) | 12.9 µM (inactive) | 9.79 µM (inactive) | 2.72 µM (inactive) | 3.33 µM (inactive) | 13.9 µM (inactive) | 13.4 µM (inactive) | – |
| Cc1ccccc1-c1c(N)nc(N)nc1C(=O)Nc1nccs1 | > 100 µM (inactive) | > 100 µM (inactive) | > 100 µM (inactive) | > 100 µM (inactive) | > 100 µM (inactive) | > 100 µM (inactive) | > 100 µM (inactive) | > 100 µM (inactive) | > 100 µM (inactive) | > 100 µM (inactive) | > 100 µM (inactive) | > 100 µM (inactive) | > 100 µM (inactive) | > 100 µM (inactive) | > 100 µM (inactive) | > 100 µM (inactive) | > 100 µM (inactive) | > 100 µM (inactive) | > 100 µM (inactive) | – |
| N#CC1C(C#N)C2(c3ccccc3)C(c3ccccc3)=NN(c3ccccc3)CC12 (stereo not given) | – | > 100 µM (inactive) | > 100 µM (inactive) | > 100 µM (inactive) | > 100 µM (inactive) | > 100 µM (inactive) | – | > 100 µM (inactive) | > 100 µM (inactive) | 16.8 µM (inactive) | > 100 µM (inactive) | > 100 µM (inactive) | > 100 µM (inactive) | > 100 µM (inactive) | – | > 100 µM (inactive) | > 100 µM (inactive) | > 100 µM (inactive) | > 100 µM (inactive) | – |
| CCCCCCCCCCCCCC(=O)NO | 10.5 µM (inactive) | 14.3 µM (inactive) | 21.4 µM (inactive) | 14.4 µM (inactive) | 8.85 µM (inactive) | 1.17 µM (inactive) | 8.99 µM (inactive) | 5.14 µM (inactive) | 24 µM (inactive) | 0.492 µM (active) | 32.1 µM (inactive) | 5.05 µM (inactive) | 12.1 µM (inactive) | 5.75 µM (inactive) | 7.78 µM (inactive) | 0.518 µM (active) | 10.7 µM (inactive) | 6.38 µM (inactive) | 24.4 µM (inactive) | 4.32 µM (inactive) |
| O=C(O)c1ccc(C2=Cc3cc(Cl)ccc3OC2)cc1 | > 100 µM (inactive) | > 100 µM (inactive) | > 100 µM (inactive) | > 100 µM (inactive) | > 100 µM (inactive) | > 100 µM (inactive) | > 100 µM (inactive) | > 100 µM (inactive) | > 100 µM (inactive) | > 100 µM (inactive) | > 100 µM (inactive) | > 100 µM (inactive) | > 100 µM (inactive) | > 100 µM (inactive) | > 100 µM (inactive) | > 100 µM (inactive) | > 100 µM (inactive) | 90.4 µM (inactive) | > 100 µM (inactive) | – |
| COc1ccc(CNc2cnc3cc(N)ccc3n2)cc1 | > 100 µM (inactive) | > 100 µM (inactive) | > 100 µM (inactive) | > 100 µM (inactive) | > 100 µM (inactive) | 77.1 µM (inactive) | > 100 µM (inactive) | > 100 µM (inactive) | > 100 µM (inactive) | 69 µM (inactive) | > 100 µM (inactive) | 80.7 µM (inactive) | > 100 µM (inactive) | > 100 µM (inactive) | > 100 µM (inactive) | 55.3 µM (inactive) | > 100 µM (inactive) | 26.4 µM (inactive) | > 100 µM (inactive) | – |
| CCCCCCCCCCCCCC(=O)O[C@H]1CC[C@H](NC(=O)[C@H](OC)[C@H](O)[C@@H](O)[C@H](O)/C=C/C(C)C)C(=O)NC1 [BENGAMIDE A] | 0.00512 µM (active) | 0.00512 µM (active) | 0.234 µM (active) | 0.117 µM (active) | 0.00512 µM (active) | 0.00512 µM (active) | 0.00619 µM (active) | 0.00386 µM (active) | 0.0033 µM (active) | 0.00512 µM (active) | 0.0148 µM (active) | 0.145 µM (active) | 0.00828 µM (active) | 0.175 µM (active) | 0.00893 µM (active) | 0.0316 µM (active) | 0.00705 µM (active) | 0.106 µM (active) | 0.0147 µM (active) | 0.147 µM (active) |
| CC[C@@]12N=C(N(C)C)C[C@]1(O)ON=C2C | > 100 µM (inactive) | > 100 µM (inactive) | > 100 µM (inactive) | > 100 µM (inactive) | > 100 µM (inactive) | > 100 µM (inactive) | > 100 µM (inactive) | > 100 µM (inactive) | > 100 µM (inactive) | > 100 µM (inactive) | > 100 µM (inactive) | > 100 µM (inactive) | > 100 µM (inactive) | > 100 µM (inactive) | > 100 µM (inactive) | > 100 µM (inactive) | > 100 µM (inactive) | > 100 µM (inactive) | > 100 µM (inactive) | – |
| C=CC(=O)N1C/C(=C\c2ccccc2)C(=O)/C(=C/c2ccccc2)C1 | 1.83 µM (inactive) | 0.668 µM (active) | 3.47 µM (inactive) | 1.95 µM (inactive) | 0.195 µM (active) | 0.71 µM (active) | 0.467 µM (active) | 1.33 µM (inactive) | 0.979 µM (active) | 0.458 µM (active) | 2.15 µM (inactive) | 3.85 µM (inactive) | 1.3 µM (inactive) | 2.15 µM (inactive) | 1.97 µM (inactive) | 0.476 µM (active) | 0.877 µM (active) | 1.77 µM (inactive) | 1.7 µM (inactive) | 1.69 µM (inactive) |
